Results published in patent publication US10287298B2, “Nitrogen-containing analogs of salinomycin, synthesis and use against cancer stem cells and malaria” (Centre National de la Recherche Scientifique (CNRS), priority 2014, dated 2019).
pIC50: −log10 of the molar value.

Key:
HMLER CD24− cells [1] = assay: Cell viability assay (CellTiter-Blue), IC50 assessment; assay type: cell-based, Human
Method: (§1) FIG. 1 represents viability of HMLER CD24− cells (full line) and HMLER CD24+ cells (dotted line) at different concentration of salinomycine (1A), AM5 […] or AM13 (1D).
(§2) Cell viability assay was carried out by plating 1000 cells per well in 96-well plates. NAC (2 mM, A9165 Sigma) or DFO (1 mM) were pretreated 2 hours prior to the compound treatment. CellTiter-Blue® Reagent (Promega; G3582) (20 μl/well) was added after 24, 48, or 72 hours treatment and cells were incubated for 1 hour before recording fluorescence (560(20)Ex/590(10)Em) using a Perkin Elmer Wallac 1420 Victor2 Microplate Reader.

HMLER CD24+ cells = assay: as above; assay type: cell-based; settings: Homo sapiens, read-out: IC50 CD24+
Method: as §1, §2

BT20 = assay: Cell death IC50, Annexin V-FITC/PI flow cytometry; assay type: cell-based; settings: Homo sapiens, BT-20, 108 h, read-out: IC50 BT20
Method: (§3) The cells were seeded in a 6-well plate at density 5.105 cells/well and cultured overnight. The cells were then treated with various concentration (15, 30, 100, 500, 1000 and 10.000 nM) of salinomycine, AM5 and AM23 for 72 h, 96 h and 108 h. After treatment, cell death was quantified using Annexin V-FITC/Propidium Iodide (PI) assay according to the manufacturer's protocol (FITC Annexin V Apoptosis Detection Kit II, 556570, BD Pharmingen™) and analyzed by a LSRFortessa™ flow cytometer (BD Bioscience, San Jose, Calif.). The data were processed using Cell Quest software (BD Biosciences). Dose-response cell death curves were determined for indicated time.
(§4) For tumor cells, the cells are classified in function of their sensitivity of drugs. Here, the most sensitive cells are incubated for 72 h, the middle sensitive cells for 96 h and the less sensitive or resistant cells are incubated for 108 h with drug at several concentrations.
(§5) Concentrations of 30 nM, 500 nm and 1 μM were used for determining the IC50 of drugs.
(§6) Intervals][…]] mean that IC50 is included in this interval with exclusion of the valor 30 nM.

BT474 = assay: Cell death IC50, Annexin V-FITC/PI flow cytometry; assay type: cell-based; settings: Homo sapiens, BT-474, 96 h, read-out: IC50 BT474
Method: as §3, §4, §5, §6

BT549 = assay: Cell death IC50, Annexin V-FITC/PI flow cytometry; assay type: cell-based; settings: Homo sapiens, BT-549, 108 h, read-out: IC50 BT549
Method: as §3, §4, §5, §6

HBL100 = assay: Cell death IC50, Annexin V-FITC/PI flow cytometry; assay type: cell-based; settings: Homo sapiens, HBL-100, read-out: IC50 HBL100
Method: as §3, §4, §5, §6

HMLE W2 = assay: Cell death IC50, Annexin V-FITC/PI flow cytometry; assay type: cell-based; settings: Homo sapiens, read-out: IC50 HMLE W2
Method: as §3, §4, §5, §6

HMLER CD24low = assay: Cell death IC50, Annexin V-FITC/PI flow cytometry; assay type: cell-based; settings: Homo sapiens, 72 h, read-out: IC50 HMLER CD24low
Method: as §3, §4, §5, §6

HMLER GFP = assay: Cell death IC50, Annexin V-FITC/PI flow cytometry; assay type: cell-based; settings: Homo sapiens; 1rst sensibility (72 h)
Method: as §3, §4, §5, §6

HMLER ID2 = assay: Cell death IC50, Annexin V-FITC/PI flow cytometry; assay type: cell-based; settings: Homo sapiens, 72 h, read-out: IC50 HMLER ID2
Method: as §3, §4, §5, §6

HMLER shECAD = assay: Cell death IC50, Annexin V-FITC/PI flow cytometry; assay type: cell-based; settings: Homo sapiens, 72 h, read-out: IC50 HMLER shECAD
Method: as §3, §4, §5, §6

MCF-7 = assay: Cell death IC50, Annexin V-FITC/PI flow cytometry; assay type: cell-based; settings: Homo sapiens, MCF7, 72 h, read-out: IC50 MCF-7
Method: as §3, §4, §5, §6

MDA-MB-134 = assay: Cell death IC50, Annexin V-FITC/PI flow cytometry; assay type: cell-based; settings: Homo sapiens, 96 h, read-out: IC50 MDA-MB-134
Method: as §3, §4, §5, §6

MDA-MB-231 = assay: Cell death IC50, Annexin V-FITC/PI flow cytometry; assay type: cell-based; settings: Homo sapiens, MDA-MB-231, 96 h, read-out: IC50 MDA-MB-231
Method: as §3, §4, §5, §6

MDA-MB-361 = assay: Cell death IC50, Annexin V-FITC/PI flow cytometry; assay type: cell-based; settings: Homo sapiens, MDA-MB-361, 96 h, read-out: IC50 MDA-MB-361
Method: as §3, §4, §5, §6

MDA-MD-157 = assay: Cell death IC50, Annexin V-FITC/PI flow cytometry; assay type: cell-based; settings: Homo sapiens, 96 h, read-out: IC50 MDA-MD-157
Method: as §3, §4, §5, §6

T47D = assay: Cell death IC50, Annexin V-FITC/PI flow cytometry; assay type: cell-based; settings: Homo sapiens, Resistant (108 h)
Method: as §3, §4, §5, §6

Zr75.1 = assay: Cell death IC50, Annexin V-FITC/PI flow cytometry; assay type: cell-based; settings: Homo sapiens, ZR-75-1, 72 h, read-out: IC50 Zr75.1
Method: as §3, §4, §5, §6

SW480 = assay: Cell death IC50, Annexin V-FITC/PI flow cytometry; assay type: cell-based; settings: Homo sapiens, SW480, 108 h, read-out: IC50 SW480
Method: as §3, §4, §5, §6
(§7) The SW620 and SW480 cell lines are from colon tumors.

SW620 = assay: Cell death IC50, Annexin V-FITC/PI flow cytometry; assay type: cell-based; settings: Homo sapiens, SW-620, 108 h, read-out: IC50 SW620
Method: as §3, §4, §5, §6, §7

HMLER CD24− cells [2] = assay: Cell proliferation and formation of mammospheres; assay type: cell-based, Human
Excerpt: FIG. 2 is a representative phase contrast photomicrographs of mammospheres formed after 11 days in the absence of any added compound (Control) or in the presence of a defined amount of salinomycine, AM5, AM9 or AM13. […] The size of the mammospheres is correlated with progenitor cell proliferation, whereas the number of mammospheres formed after serial passages at clonal density is correlated with the self-renewal capacity of primitive Cancer Stem Cells. […]
FIG. 9 represents images of the third generation of mammospheres formed from individual HMLER CD24low cells treated during 7 days with the indicated drug. The size of the mammospheres is correlated with progenitor cell proliferation capacity, whereas the number of mammospheres formed after serial passages at clonal density is correlated with the self-renewal capacity of primitive Cancer Stem Cells.
AM5, AM9, AM13 and salinomycine were assessed for their capability to inhibit cell proliferation and formation of mammospheres. […]
AM5 and AM23 and salinomycine were assessed for their capability to inhibit cell proliferation and formation of mammospheres.

HMLER CD24low cells = assay: Reactive Oxygen Species (ROS) levels by flow cytometry (CM-H2DCF-DA); assay type: cell-based, Human; settings: 30 nM, 500 nM or 1 μM, 48 h
Method: Reactive Oxygen Species (ROS) levels were measured by flow cytometry or by confocal scanning immunofluorescence microscopy using CM-H2DCF-DA (C6827, invitrogen). Briefly, U2OS and HMLER CD24low cells were treated as indicated in FIG. 11 (30 nM, 500 nM or 1 μM of salinomycine, AM5 or AM23 or untreated during 48 h). Then, these cells were trypsined and incubated with 5 μM CM-H2DCF-DA at 37° C. for 40 min, washed once with PBS and were counterstained with DAPI (0.5 μg/ml) to exclude non-viable cells. The mean fluorescence intensity was determined as ROS production by flow cytometry with LSRFortessa™ cytometer (BD Bioscience, San Jose, Calif.). For immunofluorescence microscopy analysis, cells were seeded on coverslips and were treated with salinomycine derivatives (injection in culture medium then treatment during 24 h, 48 h and 72 h). LysoTracker® Red DND-99 (L-7528, Life technologies) was used to visualize lysosomes. Then, cells were fixed with 4% PFA/PBS. DAPI was used to visualize nuclear DNA. Cell images were obtained using a Deltavision real-time microscope (Applied Precision) or an ApoTome.2 microscope (Zeiss). ImageJ was used for further image processing.
FACS analysis of ROS in cells treated for 48 h is represented in FIG. 17.

MDA-MB-231 cells = assay: Dead cells by DIOC6(3)/DAPI test with cathepsine B inhibitor; assay type: cell-based, Human; settings: 500 nM; COA74-Me 30 μM; 48 h, 96 h, 108 h
Method: From the treatment, dead cells were assessed by DIOC6(3)/DAPI test and analyzed by flow cytometry.

[3] = third generation of mammospheres, HMLER CD24low cells treated 7 days

Question: With `CCC(C(=O)O)[C@H]1CC[C@H](C)C([C@@H](C)[C@H](O)[C@H](C)C(=O)[C@H](CC)[C@H]2O[C@]3(C=C[C@@H](NC4CC4)[C@]4(CC[C@@](C)([C@H]5CC[C@](O)(CC)[C@H](C)O5)O4)O3)[C@H](C)C[C@@H]2C)O1` (some centres unmarked) [AM23, Sal-cyclopropylamine] as the molecule, how does the pIC50 (HMLER CD24− cells [1]; Homo sapiens, read-out: IC50 CD24−) read?
Answer: 7.37

Question: What about the “activity against CD24 cells compared with salinomycine” value (HMLER CD24− cells [1]; comparison of the IC50 results) of the same molecule?
Answer: significantly improved activity

Question: What about the pIC50 (HMLER CD24+ cells) of the same molecule?
Answer: 5.92

Question: What about the pIC50 (BT20) of the same molecule?
Answer: 6.30 to 7.52

Question: What about the pIC50 (BT474) of the same molecule?
Answer: < 6.00

Question: What about the pIC50 (BT549) of the same molecule?
Answer: < 6.00

Question: What about the pIC50 (HBL100) of the same molecule?
Answer: < 6.00

Question: What about the pIC50 (HMLE W2) of the same molecule?
Answer: 6.00

Question: And the pIC50 (HMLER CD24low)?
Answer: > 7.52

Question: And the pIC50 (HMLER GFP)?
Answer: 7.52

Question: And the pIC50 (HMLER ID2)?
Answer: > 7.52

Question: What about the pIC50 (HMLER shECAD) of the same molecule?
Answer: 7.52

Question: What about the pIC50 (MCF-7) of the same molecule?
Answer: 6.30 to 7.52

Question: What about the pIC50 (MDA-MB-134) of the same molecule?
Answer: < 6.00

Question: And the pIC50 (MDA-MB-231)?
Answer: < 6.00

Question: What about the pIC50 (MDA-MB-361) of the same molecule?
Answer: 6.00

Question: And the pIC50 (MDA-MD-157)?
Answer: 6.30 to 7.52

Question: What about the pIC50 (T47D) of the same molecule?
Answer: < 6.00

Question: What about the pIC50 (Zr75.1) of the same molecule?
Answer: 6.30 to 7.52

Question: And the pIC50 (SW480)?
Answer: 6.30 to 7.52

Question: What about the pIC50 (SW620) of the same molecule?
Answer: 6.30 to 7.52

Question: And the “inhibition of cell proliferation, efficacy in comparison with salinomycine” value (HMLER CD24− cells [2]; at 30 nM)?
Answer: ten-fold improved efficacy

Question: And the number of mammospheres (HMLER CD24− cells [2]; [3])?
Answer: reduced the number of mammospheres

Question: And the size of mammospheres (HMLER CD24− cells [2]; [3])?
Answer: reduced by the highest dose

Question: And the ROS induction (HMLER CD24low cells)?
Answer: induces ROS

Question: And the “death of MDA-MB-231 cells in combination with cathepsine B inhibition” value (MDA-MB-231 cells)?
Answer: combine themselves to induce the death
